Results as given in ChEMBL document CHEMBL1129780, “Adenine-arginine mimetics as bisubstrate analog inhibitors of cAMP-dependent protein kinase” (Bioorg Med Chem Lett, 1996).

How the values were obtained:
Format in all cases: protein-complex assay
[1] = molecular target: T1, cAMP-dependent protein kinase A (Bos taurus, UniProt P00515+P00517+P05131+P31322); assay: Inhibitory constant for Protein Kinase A
[2] = molecular target: T1, cAMP-dependent protein kinase A; assay: Inhibition of PKA at 2 mM ATP
[3] = molecular target: T1, cAMP-dependent protein kinase A; assay: Inhibition of PKA at 100 uM ATP

SMILES	Ki [1] [µM]	IC50 [2] [µM]	IC50 [3] [µM]
N=C(N)NCCOCCOCCn1cnc2c(N)ncnc21	150	6200	1700
N=C(N)NCCn1cnc2c(N)ncnc21	38	790	420
N=C(N)NCCOCCn1cnc2c(N)ncnc21	29	760	320
Nc1ncnc2c1ncn2[C@@H]1O[C@H](CO)[C@@H](O)[C@H]1O [ADENOSINE]	15	1100	160
